Here are results for eleven compounds from paper PMC7037393, “Synthesis, Structural, and Cytotoxic Properties of New Water-Soluble Copper(II) Complexes Based on 2,9-Dimethyl-1,10-Phenanthroline and Their One Derivative Containing 1,3,5-Triaza-7-Phosphaadamantane-7-Oxide” (Molecules, 2020).

The test system of data set [1] is NHDF cells. The arrangement: method as in PMID 31237306. Particulars: cited from earlier work.
In data set [2] the test system is A549 (human lung carcinoma). The arrangement: method as in PMID 31237306. Particulars: cited from earlier work.
Data set [3] relates to HeLa (human cervix carcinoma). On the set-up: method as in PMID 31237306. Particulars: cited from earlier work.
For data set [4], the system named is MCF7 (human breast adenocarcinoma). On the set-up: method as in PMID 31237306. Particulars: cited from earlier work.
The subject of data set [5] is LoVo (human colorectal adenocarcinoma). On the set-up: method as in earlier work. Particulars: cited from earlier work.
In data set [6] the test system is A549 or HeLa lines. Particulars: cited from earlier work.
Data set [7] deals with apo-Tf. Particulars: cited from earlier work.
Data set [8] has as its system NHDF cells. As to the kind of experiment: Cytotoxicity on normal human dermal fibroblasts, quantitative suspension test according to EN 14476 (DAPI/propidium iodide). It counts as cell-based. Particulars: observed 4 days, aqua media. As for the experimental part: (§1) Normal human dermal fibroblasts (NHDF) (PromoCell, C-12302) were used as normal cells and LoVo (human colorectal adenocarcinoma, ATCC® CCL-229™), A549 (human lung carcinoma, ATCC, No. CCL-185 TM), MCF-7 (human breast adenocarcinoma, ATCC, No. HTB-22^TM) and HeLa (human cervix carcinoma, ATCC, No. CCL-2 TM) were used as cancer cells. They were cultured in DMEM, DMEM–F12 or EMEM (Lonza, CA, USA). Media were supplemented with 10% FBS (Biological Industries, Kibbutz Beit-Haemek, Israel), 2 mM L-glutamine (Biological Industries, Israel), 100 U/mL of penicillin and 100 µg/mL of streptomycin (Sigma, Neustadt an der Weinstrasse, Germany).
(§2) The 100 μL of suspension of NHDF, A549, HeLa, LoVo, and MCF7 cells at a density of 4 × 10^4 cells mL^−1 were incubated in a 96-well polystyrene plate (NUNC, Denmark) for 24 h. Product test solutions were prepared in DMEM, DMEM–F12, or EMEM supplemented with additional 2% FBS and 2 mM L-glutamine. Solutions of the reagents at concentrations from 460 (for 1), 454 (2), […] (3), 1242 (Cu(NO3)2), 1732 (PTA=O), and 1440 µM (dmphen) to 4.60 × 10^−6, 4.54 × 10^−6, 4.69 × 10^−6, 1.24 × 10^−5, 1.73 × 10^−5, and 1.44 × 10^−5 µM, respectively, were prepared and transferred (100 μL) into cell culture units (wells of microtiter plates) containing monolayer of cells. Eight units were inoculated with each dilution. Plates were incubated in 37 °C, 5% CO2 and observed daily for 4 days for the development of cytotoxic effect, using an inverted microscope (Olympus Corp., Hamburg, Germany, Axio Observer, Carl Zeiss MicroImaging GmbH). Then the wells were washed in phosphate buffered saline (PBS) and stained using DAPI (4′,6-diamidino-2-phenylindole) and propidium iodide (Merck, Darmstadt, Germany). The study used the fact that DAPI is able to be combined with cellular DNA, permeate through the membrane of cell, rapidly enter the nucleus of living cells and bind with DNA to form a DAPI-DNA complex. […] In cell culture these are cells that are apoptotic or damaged by any physical or chemical agent. Therefore, if these two fluorochrome are given at the same time, DAPI will get to healthy cells faster, while propidium iodide will stain dead or dying cells. The calculation of the ratio of cells counted on a specific area, allows to determine the potency of a substance in inhibiting a specific biological function (IC50).

In data set [9] the test system is A549 (human lung carcinoma). In words: Cytotoxicity on A549 cells, quantitative suspension test according to EN 14476. It is filed as cell-based. Particulars: observed 4 days, aqua media. As for the experimental part:
as §1, §2

In data set [10] the test system is HeLa (human cervix carcinoma). In words: Cytotoxicity on HeLa cells, quantitative suspension test according to EN 14476. It counts as cell-based. Particulars: observed 4 days, aqua media. The procedure:
as §1, §2

Data set [11] concerns MCF7 (human breast adenocarcinoma). As to the kind of experiment: Cytotoxicity on MCF7 cells, quantitative suspension test according to EN 14476. It is filed as cell-based. Particulars: observed 4 days, aqua media. The procedure:
as §1, §2

Data set [12] relates to LoVo (human colorectal adenocarcinoma). As to the kind of experiment: Cytotoxicity on LoVo cells, quantitative suspension test according to EN 14476. It is filed as cell-based. Particulars: observed 4 days, aqua media. The procedure:
as §1, §2

Data set [13] has as its system A549 cell line. Particulars: read-out: IC50 value for A549 cell line; cited from earlier work.
Data set [14] has as its system normal cell lines like MRC5, HEK293T, or HaCat. Particulars: cited from earlier work.
Setting [15] is: read-out: IC50 value, cytotoxic effect on A549 or HeLa lines, A549 or HeLa.

Read-outs that look alike come from different tables or passages of the source. Some results are limits rather than exact numbers.

By IC50 is commonly meant the concentration that gives 50% inhibition.

On to `N.N.[Cl][Pt][Cl]` [Cisplatin], for which the IC50 in data set [1] was 16.6 ± 2.1 µM; in data set [2], 33.3 ± 4.2 µM; in data set [3] it was 16.6 ± 3.1 µM; in [4] it was 33.3 ± 4.2 µM; in data set [5] it was 9.12 ± 0.005 µM.

As for “[Cu2(sal-D,L-glu)2(isoquinoline)2]∙2EtOH”, the IC50 in data set [6] (setting [15]) was > 100 µM.

As to [Cu(EtOH)2(imidazole)4], the IC50 in data set [6] is > 100 µM.

On to `CS(C)=O.[Cl-].[Cl-].[Cl-].[Cl-].[Ru+3].c1c[nH+]c[nH]1.c1c[nH]cn1` [NAMI-A, Imidazolium-trans-tetrachloro(dimethylsulfoxide)imidazoleruthenium(III)], for which the “association constant with apo-Tf” value in [7] is 12800 M⁻¹.

Turning to [Cu(sal-5-met-L-glu)(H2O)]∙H2O, in [6] (setting [15]), the IC50 was > 100 µM.

[Cu2(sal-D,L-glu)2(imidazole)2]: the IC50 in [6] is > 100 µM.

As for `[Cr+3].c1cnc2c(c1)ccc1cccnc12.c1cnc2c(c1)ccc1cccnc12.c1cnc2c(c1)ccc1cccnc12` [chromium(III)-phen], the “association constant, apo-Tf system” value in data set [7] was 150000 M⁻¹.

For `O=[N+]([O-])[O-].O=[N+]([O-])[O-].[Cu+2]` [Cu(NO3)2, reference compound], the IC50 amounted to 310 ± 47 µM in data set [8]; 155 ± 23 µM in data set [9]; 19.1 ± 2.9 µM in data set [10]; 155 ± 23 µM in [11]; 38.8 ± 5.8 µM in data set [12].

On to `Cc1ccc2ccc3ccc(C)nc3c2n1` [Dmphen, 2,9-dimethyl-1,10-phenanthroline], for which the IC50 in data set [10] (Homo sapiens, 96 h) was determined as 720 ± 108 µM; in data set [12] (Homo sapiens, 96 h) it was 360 ± 54 µM.

In the case of `COc1ccc(P(CO)c2ccc(OC)cc2)cc1.Cc1ccc2ccc3ccc(C)nc3c2n1.[Cu+].[I-]` [[Cu(iodide)(dmphen)(P(p-OCH3-Ph)2CH2OH)]], the IC50 in [13] was 62 µM. In addition, in [14], the “concentration toxic for normal cell lines” value was 32 to 43 µM.

In the case of “[Cu(iodide)(dmphen)(P(p-OCH3-Ph)2CH2-SarGly)]”, in data set [13], the IC50 was > 100 µM.
